The source of these data is patent publication US20260191815A1, “THIOACRYLAMIDE DERIVATIVES FOR USE IN THE PREVENTION OR TREATMENT OF LIVER FIBROSIS” (CMR CUREDIAB METABOLIC RESEARCH GMBH, priority 2022, published 2026).

The test system of assay [1] is leukaemia inhibitory factor (LIF) secretion by LX2 cells. The assay is described as follows: Olink Inflammation immunoassay of LX2 supernatants: LIF. The format is cell-based, human. Conditions: 5 ng/ml TGF-β1. How it is done:
(§1) The human hepatic stellate cell line LX2 was purchased from Merck. The cells were used up to passage ten and incubated under sterile conditions at 37° C. and 5% CO2. The cells were cultivated in medium containing Dulbecco's Modified Eagle's Medium with 4.5 g/l glucose (ThermoFisher), 4 mmol/l glutamine (ThermoFisher), 2% fetal bovine serum (FBS) (Merck), 100 U/ml penicillin and 100 μg/ml streptomycin (Merck). After 2 days, LX2 cells were starved for FBS for 24 h and then pretreated with 10 μM HK1 (Taros Chemicals GmbH & Co. KG) or 10 μM HK3 (Taros Chemicals GmbH & Co. KG) for 30 min. Subsequently, 5 ng/ml recombinant TGF-β1 (R&D Systems, Minneapolis, MN, USA) was added to the hepatic stellate cell cultures for 24 h. LX2 cells were also incubated with 5 ng/ml TGF-β1 alone as positive control for the hepatic stellate cell activation. […]
(§2) LX2 cells were cultured and treated as described in Example 1. […] This protein quantification method is based on a proximity extension assay technology, which combines a dual-recognition immunoassay using two matched antibodies labelled with DNA oligonucleotides, with a polymerase chain reaction (PCR) amplification and a microfluidic quantitative real-time PCR as readout. […]
(§3) Differences were analysed by one-way ANOVA followed by the Tukey method as correction for multiple testing.

Assay [2] has as its system interleukin-6 (IL-6) secretion by LX2 cells. The assay is described as follows: Olink Inflammation immunoassay of LX2 supernatants: IL-6. As to conditions: 5 ng/ml TGF-β1. The assay is classed as cell-based, human. On the procedure: (§4) The human hepatic stellate cell line LX2 was purchased from Merck. The cells were used up to passage ten and incubated under sterile conditions at 37° C. and 5% CO2. The cells were cultivated in medium containing Dulbecco's Modified Eagle's Medium with 4.5 g/l glucose (ThermoFisher), 4 mmol/l glutamine (ThermoFisher), 2% fetal bovine serum (FBS) (Merck), 100 U/ml penicillin and 100 μg/ml streptomycin (Merck). After 2 days, LX2 cells were starved for FBS for 24 h and then pretreated with 10 μM HK1 (Taros Chemicals GmbH & Co. KG) or 10 μM HK3 (Taros Chemicals GmbH & Co. KG) for 30 min. Subsequently, 5 ng/ml recombinant TGF-β1 (R&D Systems, Minneapolis, MN, USA) was added to the hepatic stellate cell cultures for 24 h. LX2 cells were also incubated with 5 ng/ml TGF-β1 alone as positive control for the hepatic stellate cell activation. Recombinant TGF-β1 was dissolved in sterile 4 mmol/l HCl (Merck) containing 0.1% bovine serum albumin (Roth Karlsruhe, Germany) as carrier protein. HK1 and HK3 were dissolved in sterile dimethyl sulfoxide (DMSO) (Sigma-Aldrich, Munich, Germany). Stimulations with 10 μM HK1, 10 μM HK3 and the corresponding vehicles (HCl and DMSO with or without HCl) alone for 24 h were also included as treatments.
LX2 cells were cultured and treated as described in Example 1. After the incubation time, the supernatants of LX2 cells were collected, centrifuged for 10 min at 2000×g at 4° C. and transferred to new tubes to measure 92 proteins in the cell culture supernatants simultaneously using the Olink Inflammation multiplex immunoassay (Olink proteomics, Uppsala, Sweden). This panel covers 92 proteins, including pro- and anti-inflammatory cytokines, growth factors, chemokines and factors involved in biological processes such as apoptosis, inflammatory and immune response, cell adhesion, chemotaxis, or fibrosis. This protein quantification method is based on a proximity extension assay technology, which combines a dual-recognition immunoassay using two matched antibodies labelled with DNA oligonucleotides, with a polymerase chain reaction (PCR) amplification and a microfluidic quantitative real-time PCR as readout. The biomarker concentrations are given as normalized protein expression (NPX) values, which were generated from the threshold cycle values from the qPCR, and represent an arbitrary unit on a log 2 scale.
as §3

The test system of assay [3] is fibronectin 1 (FN1) protein in LX2 cells. Briefly: Simple Western of FN1 protein in TGF-β1-stimulated LX2 hepatic stellate cells. The assay is classed as cell-based, human. Conditions: 5 ng/ml TGF-β1, 24 h, LX2 cells. How it is done:
as §4
(§5) For the measurement of the pro-fibrotic proteins, Western Blotting was performed. Proteins were extracted from whole cell lysate of LX2 cells using RIPA lysis buffer containing 50 mmol/l Tris-HCl (pH 8.0), 150 mmol/l NaCl, 1% IGEPAL® CA-630, 0.5% sodium deoxycholate, 0.1% sodium dodecyl sulfate, 10% PhosSTOP Phosphatase Inhibitor Cocktail (Roche, Basel, Switzerland) and 10% cOmplete Mini Protease Inhibitor Cocktail (Roche). Lysates were centrifuged at 14850×g for 15 min at 4° C. Then, the total protein content of the lysates was determined using a bicinchoninic acid protein assay (ThermoFisher Scientific) in accordance with the manufacturer's instructions. The quantification of protein abundance was performed by Simple Western size-based assays using a 12-230 kDa and 66-440 kDa Separation Module (ProteinSimple, San Jose, CA, USA) according to the manufacturer's instructions. This fully automated Western blotting system is based on a capillary electrophoresis technology. The separation, immobilization to the capillary wall via a proprietary, photoactivated capture chemistry and immunodetection of the proteins using a horseradish peroxidase (HRP)-conjugated secondary antibody and chemiluminescent substrate take place directly in the capillary without gel separation and transfer steps to blotting paper. The chemiluminescence is measured at multiple exposure times and automatically quantified by the Compass for Simple Western software (version 4.1.0) (ProteinSimple). The chemiluminescent signal for immunodetected proteins, which can be represented as an electropherogram or virtual blot-like image, is automatically quantified by calculation of the area under the curve of the peak.
(§6) The software reports the molecular weight, the area (in an arbitrary unit and in percent) and signal to noise ratio for each protein detected. The primary antibodies for the recognition of endogenous levels of total alpha-1 type 1 collagen (COL1A1) protein (#72026) and total fibronectin 1 (FN1) protein (#26836) were purchased from Cell Signaling Technology (Danvers, MA, USA). The anti-rabbit HRP-linked secondary antibody was from ProteinSimple. […]
as §3

Assay [4] concerns vascular endothelial growth factor A (VEGFA) secretion by LX2 cells. Briefly: Olink Inflammation immunoassay of LX2 supernatants: VEGFA. The format is cell-based, human. As to conditions: 5 ng/ml TGF-β1. On the procedure: as §1, §2, §3
In assay [5] the test system is alpha-1 type 1 collagen (COL1A1) protein in LX2 cells. Briefly: Simple Western of COL1A1 protein in TGF-β1-stimulated LX2 hepatic stellate cells. Conditions: 5 ng/ml TGF-β1, 24 h, LX2 cells. The assay is classed as cell-based, human. On the procedure:
as §4, §5, §6, §3

In assay [6] the test system is caspase 3/7 activity in primary human hepatocytes. The assay is described as follows: Caspase 3/7 activity provoked by palmitate in primary human hepatocytes. The assay is classed as cell-based. How it is done:
(§7) The potential protective effect of HK1 and HK3 on caspase 3/7 activity in HepG2 cells and primary human hepatocytes was analysed.
(§8) HepG2 cells were obtained from Merck (Darmstadt, Germany) (ECACC-certified), while primary human hepatocytes were obtained from Thermo Fisher Scientific (Waltham, MA, USA), and all were cultured according to the instructions of the respective manufacturers. During experiments, cells were cultured in serum-free medium. Unless otherwise stated, cells were treated with 200 μM bovine serum albumin (BSA)-conjugated palmitate (Cayman Chemicals, Ann Arbor, MI) alone or in combination with 10 μM HK1 (Taros Chemicals GmbH & Co. KG, Dortmund, Germany) and HK3 (Taros Chemicals GmbH & Co. KG, Dortmund, Germany) 30 min prior to palmitate exposure for 24 hours. The vehicle BSA was used according to the palmitate concentration and DMSO according to HK1 and HK3 concentration. 2 μM Staurosporine (Abcam, Cambridge, GB) was used as a positive and 100 μM Caspase 3/7 inhibitor (CI) (Cayman Chemicals) as a negative control.
(§9) Differences were analysed by one-way ANOVA.

For assay [7], the system named is caspase 3/7 activity in HepG2 cells. The assay is described as follows: Caspase 3/7 activity provoked by palmitate in HepG2 cells. The assay is classed as cell-based. On the procedure: as §7, §8, §9
A hepatoprotective effect was determined as described in Example 4. A treatment was performed with HK1, HK2, HK3, HK4 or HK5 (100 nM) either alone or in combination with palmitate (200 μM).
Differences were analysed by one-way ANOVA, n=4.

For “TGF-β1: recombinant TGF-β1 (R&D Systems), positive control for the hepatic stellate cell activation”, the “increased secretion of LIF compared to untreated LX2 cells” value in assay [1] came out at 35.40±9.76 fold. For the same molecule, the “increased secretion of IL-6 compared to untreated LX2 cells” value in assay [2] came to 4.99±2.01 fold. Moreover, the “increase of protein levels of FN1 compared to untreated cells” value in assay [3] turned out to be 3.0±0.2 fold. The “increased secretion of VEGFA compared to untreated LX2 cells” value in assay [4] came to 13.89±2.40 fold. For the same molecule, the “increase of protein levels of COL1A1 compared to untreated cells” value in assay [5] was 2.6±0.2 fold.

On to `CCCCCCCCCCCCCCCC(=O)O` [palmitate, reference compound], for which the activity at 200 µM in assay [6] (Hepatocyte, palmitate 200 μM alone, read-out: caspase 3/7 activity, % of control) was 129%; in assay [7] (Homo sapiens, palmitate 200 μM alone, 24 h, read-out: caspase 3/7 activity, % of control) it was 429%.

In the case of `COC[C@@H]1CCCN1S(=O)(=O)c1ccc2c(c1)C(=O)C(=O)N2` [Caspase 3/7 inhibitor, reference compound], the “caspase 3/7 activity, % of control” value is recorded as 21.23%±4.33% in assay [6] (100 μM inhibitor + palmitate 200 μM) and 29.65%±24.56% in assay [7] (100 μM caspase 3/7 inhibitor + palmitate 200 μM).

For the molecule `CN[C@@H]1C[C@H]2O[C@@](C)([C@@H]1OC)n1c3ccccc3c3c4c(c5c6ccccc6n2c5c31)C(=O)NC4` [Staurosporine, reference compound], the activity at 2 µM in assay [7] (Homo sapiens, 2 μM, positive control) came to 687%.
